Where two headings read alike, the source gives them in different places.
How the values were obtained:
CB2R [1] = conditions: cited from earlier work
CB1R = conditions: cited from earlier work
human CB2R (hCB2R) = biological target: T1, human CB2R (hCB2R) (Homo sapiens, UniProt P34972); test: Homologous competition binding, CHO(hCB2R) cell membranes
T1 construct: expressed in transfected cells; host or cells: CHO(hCB2R) cells, obtained from Paul L. Prather, University of Arkansas for Medical Sciences
T1 sequence (P34972 whole entry): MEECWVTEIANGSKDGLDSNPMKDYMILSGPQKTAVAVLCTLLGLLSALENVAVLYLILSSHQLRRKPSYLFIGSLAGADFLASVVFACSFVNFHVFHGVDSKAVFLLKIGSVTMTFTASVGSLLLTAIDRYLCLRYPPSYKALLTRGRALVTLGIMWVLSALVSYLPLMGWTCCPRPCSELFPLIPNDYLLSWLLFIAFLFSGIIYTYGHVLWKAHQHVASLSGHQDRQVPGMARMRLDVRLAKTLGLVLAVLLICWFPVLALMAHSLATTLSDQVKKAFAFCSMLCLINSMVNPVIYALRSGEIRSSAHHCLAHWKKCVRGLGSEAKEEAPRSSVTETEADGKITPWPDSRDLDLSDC
Protocol: For binding studies crude homogenates of CHO(hCB2R) cells (obtained from Paul L. Prather, Department of Pharmacology and Toxicology, College of Medicine, University of Arkansas for Medical Sciences, USA) were incubated with the reference compound (self-blocking) or the CB2R-specific partial agonist GW405833 (Tocris Bioscience, Bristol, UK) with indicated concentrations at room temperature for 90 min. The total volume of 1 mL of each sample consisted of 600 µL incubation buffer (50 mM Tris HCl pH7.4, 5 mM MgCl2, 1 mM EDTA and 1% Bovine Serum Albumin), 200 µL cell membrane homogenates, 100 µL competitor or binding buffer (total binding) and 100 µl of binding buffer with [^18F]JHU94620-d8 (about 100 kBq per vial, corresponding to 0.8 to 1.6 nM). Incubation was terminated by rapid filtration through a GF-B glass fibre filter, pre-treated with 0.5% PVP with 0.1% Tween 20 solution, using a 48-well cell harvester, washed six times with buffer and filter bound activity was subsequently measured in a γ-counter (1480 WIZARD, Perkin Elmer, Turku, Finland).
(§1) The KD values were calculated with GraphPad Prism according to the modified Cheng-Prusoff method for homologous competitive binding studies, where the KD = Ki = IC50—[radioligand] and the Bmax = specific binding / [radioligand] / ((KD + [radioligand])) (Motulsky and Neubig [2000]), assuming a total protein content of 8.2% (1.3 10^–4 µg protein per voxel) in the spleen (Zaia et al. [2000]) or by determining the protein concentration of the cell membrane lysates using a BCA assay (Thermo Scientific, Braunschweig, Germany). The fractional occupancy defined as occupied binding sites per total binding sites is used to describe the binding fraction specifically bound to CB2R compared to unspecific binding, where [L] is the concentration of the ligand at the start of incubation.

CB2R [2] = biological target: T2, CB2R (Rattus norvegicus, UniProt Q9QZN9); test: Quantitative autoradiography, rat spleen cryosections; format: binding; conditions: 100 nM CB2R PAM, rat spleen
T2 construct: from tissue; host or cells: rat spleen: cryosections in vitro, and spleen of living Wistar rats in PET
T2 sequence (Q9QZN9 1-360): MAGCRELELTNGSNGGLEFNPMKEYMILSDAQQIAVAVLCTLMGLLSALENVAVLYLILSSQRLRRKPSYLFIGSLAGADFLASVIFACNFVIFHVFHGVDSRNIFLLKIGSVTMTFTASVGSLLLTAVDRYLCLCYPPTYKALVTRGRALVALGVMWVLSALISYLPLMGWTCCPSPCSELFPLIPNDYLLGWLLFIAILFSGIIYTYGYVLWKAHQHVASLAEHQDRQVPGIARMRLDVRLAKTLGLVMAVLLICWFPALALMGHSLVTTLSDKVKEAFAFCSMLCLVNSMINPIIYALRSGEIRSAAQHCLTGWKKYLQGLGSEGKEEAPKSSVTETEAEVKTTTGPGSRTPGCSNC
Protocol: For quantitative autoradiography in different species, 10 µm cryosections from mouse, rat and piglet spleen were thawed, dried, and pre-incubated with incubation buffer for 10 min, dried under an airstream. Subsequently, the incubation buffer containing [^18F]JHU94620-d8 (59–137 GBq µmol^−1, 1.7–3.6 nM) was added alone or together with indicated concentrations of the reference compound. Additionally, to assess the non-specific binding of [^18F]JHU94620-d8 to cryosections GW405833 was added instead of the reference compound. After 90 min, cryosections were washed two times for 2 min with ice-cold 50 mM Tris HCl, pH7.4 and 10 s in ddH2O and subsequently dried under an airstream. For the calculation of the radioactivity concentration, 5 µl of five serial 1:2 dilutions of the incubation buffer with [^18F]JHU94620-d8 were air-dried on a microscopic slide. For binding studies in rat spleen cryosections by autoradiography with HLM-derived radiometabolites of [^18F]JHU94620-d8 obtained from the radiometabolite assay, the samples were added to the incubation buffer to a final activity concentration of 0.2 MBq mL^−1 and protocol was followed as described above. Subsequently, the slides were exposed to a phosphor imager plate. After scanning at high sensitivity and a 12.5 µm resolution with a CR35 Bio image plate scanner (Raytest Isotopenmessgeräte GmbH, Straubenhardt, Germany). The analyses of the autoradiographic images were performed with the AIDA 5.1 software (Elysia-Raytest, Angleur, Belgium) resulting in a resolution of 12.617 pixel × 12.616 pixel per µm^2 (1 voxel = 1592 µm^3 ≙ 1.59 10^–3 µg wet tissue) and inhibition curves were created with GraphPad Prism 9.5.1 (GraphPad Inc., La Jolla, CA).
as §1

CB2R [3] = biological target: T2, CB2R; format: in vivo; conditions: Wistar rats, i.v. pre-treatment 5 min prior tracer, between 2.5 and 20 min p.i., 1-way ANOVA p < 0.05
Protocol: The dynamic biodistribution of the radiotracer in the lower body of rats was assessed by small animal PET (Nanoscan, Mediso, Hungary) over 60 min with a subsequently T1-weighted MR. Anaesthetized (2% isoflurane, carrier gas mixture of 40% air and 60% O2) male Wistar rats (body weight: 205–308 g, age: 8–10 weeks, no gender-specific differences were taken into account) were kept during imaging on a heated animal bed to sustain body temperature and were pretreated with vehicle (DMSO:Kolliphore EL:0.9% saline, 1:2:7), JHU94620-d8 (1.5 mg kg^−1 bodyweight) or with GW405833 (5 mg kg^−1 bodyweight) 5 min prior tracer application ([^18F]JHU94620-d8: 7.7–28.2 MBq, 0.4 to 3.2 nmol kg^−1 bodyweight), whereby all injections were administered intravenously. For the evaluation of the hCB2R-specific binding of the radiotracer in the brain, female Wistar rats (n = 6, 253–269 g, age: 8 month) were used carrying stereotactically injected constructs of AAV2/7-CaMKII0.4-intron-hCB2R(D80N) in the right striatum and AAV2/7-CaMKII0.4-intron-3flag-eGFP in the control/contralateral striatum (Vandeputte et al. [2011]). 21–26 MBq corresponding to 0.2 to 2.0 nmol kg^−1 bodyweight radiotracer were injected, whereas in displacement studies 5 mg kg^−1 bodyweight GW405833 was administered 20 min after the radiotracer (each n = 3). The PET scans were performed six months after the stereotactic injections of the AAV2/7-constructs.
The acquisitions were performed in normal mode and a coincidence mode 1–5. For subsequent dynamic reconstructions list mode data were sorted into sinograms (12 × 10 s, 6 × 30 s, 5 × 60 s and 10 × 300 s). The frames were reconstructed by Ordered Subset Expectation Maximization applied to 3D (OSEM3D) sinograms corrected for decay and attenuation (4 iterations, 6 subsets and a voxel size of 0.4 mm^3) with the Nucline software v2.01 (Mediso, Budapest, Hungary). Analyses of reconstructed studies were performed with PMOD software (v4.205, PMOD Technologies LLC, Fällanden, Switzerland) and results are expressed in standardized uptake values (SUVs) or normalized to a reference region (SUVr).

hCB2R(D80N) = hCB2R(D80N) (Homo sapiens, UniProt P34972, D80N); test: Homologous displacement autoradiography, brain cryosections of rats with hCB2R(D80N) overexpression; format: binding; conditions: hCB2R(D80N) region, 10 µm rat brain cryosections, homologous displacement, n = 3; read-out: KD
Chain of hCB2R(D80N) (P34972 whole entry D80N): as the sequence (P34972 whole entry) above, with D80N counted along it

CB2R [4] = biological target: T2, CB2R; design: method as in Govaerts et al. [2004]; conditions: rat spleen; ref Govaerts et al. [2004]; cited from earlier work
CB2R [5] = biological target: T3, CB2R (Mus musculus, UniProt P47936); design: method as in Govaerts et al. [2004]; conditions: mouse spleen; ref Govaerts et al. [2004]; cited from earlier work
T3 construct: from tissue; host or cells: mouse spleen cryosections
T3 sequence (P47936 whole entry): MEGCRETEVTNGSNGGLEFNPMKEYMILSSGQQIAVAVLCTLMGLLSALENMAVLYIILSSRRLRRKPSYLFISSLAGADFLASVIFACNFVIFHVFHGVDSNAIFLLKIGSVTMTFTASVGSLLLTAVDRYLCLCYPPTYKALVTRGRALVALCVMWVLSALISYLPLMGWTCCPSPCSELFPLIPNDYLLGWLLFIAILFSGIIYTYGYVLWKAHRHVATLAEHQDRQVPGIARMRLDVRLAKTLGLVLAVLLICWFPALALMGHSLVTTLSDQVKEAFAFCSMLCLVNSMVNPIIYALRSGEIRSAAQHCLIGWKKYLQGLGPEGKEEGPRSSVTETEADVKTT

[6] = Ex vivo radiometabolite analysis in CD-1 mice; conditions: CD-1, mouse, in vivo, 30 min
Protocol: Female adult CD-1 mice (25–42 g body weight) were used for radiometabolite analysis of [^18F]JHU94620-d4 (n = 2, 33 and 34 MBq) and [^18F]JHU94620-d8 (n = 3, 26–33 MBq) at 30 min after intravenous tail vein injection of the radiotracer to allow for the comparison of radiometabolite analysis of [^18F]JHU94620 (Moldovan et al. [2016]). The mice were immobilized by short isoflurane narcosis for the injection of the radiotracer in a restrainer and awakened mice were kept in an isolated cage until euthanisation by cervical dislocation under isoflurane narcosis. Male Wistar rats (n = 12, 613–794 g) were used for radiometabolite analysis of [^18F]JHU94620-d8 at different time points (5, 15, 30 and 60 min p.i.) after intravenous tail vein injection of the radiotracer (37–74 MBq) for the correction of the input function in pharmacokinetic analysis. Rats were kept under isoflurane narcosis (gas mixture: 2.5% isoflurane and O2) on a warmed plate until euthanization by decapitation of deep narcotized animals. Plasma samples were obtained by centrifugation with 5500 g of blood samples for 2 min at 4 °C. Resected tissues brain and spleen were kept on ice and minced for 3 × 20 s with adding 0.5 to 1 mL of 0.9% NaCl using a Precellys lysing kit and Minilys homogenizer (Bertin Technologies SAS, Montigny-le-Bretonneux, France).
The samples were further processed for subsequent radio-chromatographic analyses. Two consecutive extractions were performed in duplicates for plasma and brain determinations. Plasma, brain and spleen samples were added to the four time the volume of an ice-cold MeOH/H2O mixture (9:1, v/v). The samples were vortexed for 3 min, incubated on ice for 5 min and centrifuged at 8,600 g for 5 min. Supernatants were collected and the precipitates were re-dissolved in 100 µL of extraction solvent and the extraction procedure was repeated. The activities of supernatants and precipitates were measured in a γ-counter (1480 WIZARD, Perkin Elmer), and the extraction efficiencies were calculated as the ratio of radioactivity in the supernatant to the radioactivity in the original sample (supernatant + precipitate). The supernatants from both extractions were combined, concentrated at 70 °C under argon stream up to a remaining volume of 100 µL, and subsequently analysed by analytical radio-HPLC (method A or B).

hCB1R = biological target: hCB1R; design: method as in Moldovan et al. [2016]; conditions: ref Moldovan et al. [2016]; cited from earlier work
hCB2R = biological target: hCB2R; design: method as in Moldovan et al. [2016]; conditions: ref Moldovan et al. [2016]; cited from earlier work
[7] = cited from earlier work
[8] = pH 7.4; cited from earlier work
[9] = ref McPartland et al. [2007], Kosar et al. [2024]
[10] = ref Caillé et al. [2017], Auvity et al. [2024]

## CCCCC/C=C\C/C=C\C/C=C\C/C=C\CCCC(=O)OC(CO)CO [2-AG, 2-arachydonilglycerol]
CB2R [1]; [9]
  Ki: 1190 nM

## CCCCC/C=C\C/C=C\C/C=C\C/C=C\CCCC(=O)NCCO [AEA, anandamide]
CB1R; [9]
  Ki: 240 nM
CB2R [1]; [9]
  Ki: 440 nM

## Cc1c(Br)cn(Cc2ccc(F)cc2)c(=O)c1NC(=O)C1CCCCCC1 [CB2R PAM, reference compound]
Human CB2R (hCB2R); 100 nM CB2R PAM, CHO(hCB2R) cell membranes
  effect of co-incubation on the binding of [^18F]JHU94620-d8: did not increase the binding
Human CB2R (hCB2R); CB2R PAM binding assay, Figure S9 as cited
  competition with [^18F]JHU94620-d8 binding: weak competitive binding
CB2R [2]
  effect of co-incubation on the binding of [^18F]JHU94620-d8: did not increase the binding

## COc1ccc2c(c1)c(CCN1CCOCC1)c(C)n2C(=O)c1cccc(Cl)c1Cl [GW405833, reference compound]
CB2R [3]
  blocking of [^18F]JHU94620-d8 uptake into the spleen: significantly blocked

## [2H]C([2H])(F)C([2H])([2H])C([2H])([2H])C([2H])([2H])n1c(C)c(C)s/c1=N\C(=O)C1C(C)(C)C1(C)C [JHU94620-d8, (Z)-N-(3-(4-Fluorobutyl-1,1,2,2,3,3,4,4-d8)-4,5-dimethylthiazol-2(3H)-ylidene)-2,2,3,3-tetramethylcyclopropane-1-carboxamide]
hCB2R(D80N)
  Kd: 41.3 nM
CB2R [3]
  blocking of [^18F]JHU94620-d8 uptake into the spleen: significantly blocked

## CCCCCCC(C)(C)c1ccc([C@@H]2C[C@H](O)CC[C@H]2CCCO)c(O)c1 [[^3H]CP55940]
CB2R [4]
  Bmax: 0.71 ± 0.02 pmol mg^−1 protein
CB2R [5]
  Bmax: 0.31 ± 0.03 pmol mg^−1 protein

## Cc1s/c(=N\C(=O)C2C(C)(C)C2(C)C)n(CCOCC[18F])c1C [[^18F]FC0324, (Z)-N-(3-(2-(2-[^18F]Fluoroethoxy)ethyl)-4,5-dimethylthiazol-2(3H)-ylidene)-2,2,3,3-tetramethylcyclopropane-1-carboxamide]
CB1R; [10]
  Ki: 30 nM
CB2R [1]; [10]
  Ki: 0.1 nM

## Cc1s/c(=N\C(=O)C2C(C)(C)C2(C)C)n(CCCC[18F])c1C [[^18F]JHU94620]
[6]
  percentage printed at the radiotracer peak of the representative radio-HPLC chromatogram (Mice): 37%
hCB1R
  Ki: 380 nM
hCB2R
  Ki: 0.4 nM
[7]; CD-1 mouse brain, 30 min p.i., ref Moldovan et al. [2016]
  parent fraction in brain: 0.36
[7]; mouse, in vivo
  parent fraction in plasma: 0.07
[8]
  LogD7.4: 3.2

## Δ^9-trans-tetrahydrocannabinol [THC]
CB1R; [9]
  Ki: 25 nM
CB2R [1]; [9]
  Ki: 36 nM
